Assay results reported in patent US20090298903A1, “USE OF TETRAMIC ACID DERIVATIVES FOR INSECT CONTROL” (priority 2006, published 2009).

Experiments:
Type in all cases: in vivo
[1] = system: Anthonomus pomorum, the apple blossom weevil; experiment: Example 26B: apple trees against apple blossom weevil; conditions: 22 d after treatment, larvae on inflorescences, Thiacloprid (SC 480) 48 + Deltamethrin 3.75 tank mix, (I-4) (150 OD) 48 g a.s./ha/m crown level
Protocol: Apple trees cv. “Holsteiner Cox” in plots approx. 20 m^2 in size are treated, in 4 replications, against Anthonomus pomorum, the apple blossom weevil. Here, the active substance Example (I-4) (150 OD) at the specified application rate is tested against a tank mix of the commercial standards Thiacloprid (SC 480) and Deltamethrin-liquid in the specified application rates. The application is carried out with a knapsack sprayer. Here, the treatment is effected with a water application rate of 500 l/ha/m crown level.
The test is evaluated 22 days after the treatment by scoring the destruction of the larvae on the inflorescences with the aid of the Abbott method.

[2] = system: apple capsid bug (Plesiocoris rugicollis); experiment: Example 1B: apple trees against apple capsid bug; conditions: 37 d after treatment, larvae on twigs, Deltamethrin (EC 025) 3.75, (I-4) (150 OD) 30 g a.s./ha/m crown level
Protocol: Apple trees cv. “Holsteiner Cox” which are approximately 14 years old are treated, in 3 replications, against the apple capsid bug (Plesiocoris rugicollis). Here, the active substance Example (I-4) (150 OD) is tested at the specified application rate against the commercial standard Deltamethrin liquid (EC 025) at the specified application rate. The application is carried out with a knapsack sprayer. Here, the treatment is effected with a water application rate of 500 l/ha/m crown level.
The test is evaluated 37 days after the treatment by scoring the destruction of the larvae on the twigs with the aid of the Abbott method.

[3] = system: oriental fruit moth (Laspeyresia molesta); experiment: Example 28: peach trees against oriental fruit moth; conditions: 41 d after treatment, Pyrifroxyfen (35 WP) 123, Acetamiprid (30 SG) 168, (I-4) (150 OD) 153 g a.s./ha
Protocol: Approx. 10-year-old peach trees are treated, in four replications, against the oriental fruit moth (Laspeyresia molesta). The application is carried out with a knapsack sprayer which is operated with pressurized air. Here, the active substance (I-4) (150 OD) is tested against the commercial standards Pyriproxyfen (35 WP) and Acetamiprid (30 SG) at the specified application rates. The water application rate is 935 l/ha.
The test is evaluated 41 days after the treatment by scoring the destruction rate of the animals on the trees.

[4] = system: Dasineura mali; experiment: Example 19 a): apple trees against Dasineura mali; conditions: 59 d after treatment; larvae, apple twigs; Pirimicarb (50 WG) 125, (I-4) (100 OD) 72 g a.s./ha/m crown level
Protocol: Apple trees cv. “Elan” which are approximately 16 years old are treated, in 3 replications, against the Dasineura mali. Here, the active substance Example (I-4) (100 OD) is tested at the specified application rate against the commercial standard and Pirimicarb (50 WG) at the specified application rate. The application is carried out with a spray diffuser. Here, the treatment is effected with a water application rate of 1000 l/ha/m crown level.
The test is evaluated 59 days after the treatment by scoring the destruction of the larvae on the basis of the adults present on the twigs with the aid of the Abbott method.

Compound: CCOC(=O)OC1=C(c2cc(C)ccc2C)C(=O)N[C@]12CC[C@@H](OC)CC2 [Example (I-4)]
- Efficacy (%) Abbott 22 d [1]: 88%
- Efficacy (%) Abbott 37 d [2]: 96%
- Efficacy (% Abbott) 41 d [3]: 48.1 % Abbott
- Efficacy (%) Abbott 59 d [4]: 95.1%
